Literature values, collected in PubChem BioAssay AID1259409 (Chemical Carcinogenesis Research Information System (CCRIS), 2018).

Tested on: rodent chemically induced tumor inhibition, incidence and multiplicity
Experiment: CCRIS tumor inhibitor studies
Settings: Dose [Inhibitor]: 0, Route [Inhibitor]: ORAL, Promoter: NONE USED

CC(C)=CCC/C(C)=C/C=C/C(C)=C/C=C/C(C)=C/C=C/C=C(C)/C=C/C=C(C)/C=C/C=C(\C)CCC=C(C)C
tumour outcome (control, treated, inhibition, significance) (Carcinogen: DIETHYLNITROSAMINE, 55-18-5, N-METHYL-N-NITROSOUREA, 684-93-5, 1,2-DIMETHYLHYDRAZINE, 306-37-6, Carcinogen: DIETHYLNITROSAMINE, 55-18-5, N-METHYL-N-NITROSOUREA, 684-93-5, 1,2-DIMETHYLHYDRAZINE, 306-37-6, 25 PPM IN DRINKING WATER FOR 21 WK BEGINNING 2 WK POST CARCINOGEN TREATMENT (STUDY DURATION: 32 WK), Species: MOUSE, Strain/Sex: B6C3F1/MALE, Target Tissue: Type of Lesion: LUNG: ADENOMA, Dose [Carcinogen]: 10 MG/KG BW DEN ON DAYS 11 AND 32 OF AGE, 120 PPM MNU IN DRINKING WATER FROM WKS 4 TO 9, 20 MG/KG BW DMH 2/WK FOR 5 WK): 11/16 (69%), 11/16 (69%), 0%, not significant | tumour outcome (control, treated, inhibition, significance) (Carcinogen: DIETHYLNITROSAMINE, 55-18-5, N-METHYL-N-NITROSOUREA, 684-93-5, 1,2-DIMETHYLHYDRAZINE, 306-37-6, Carcinogen: DIETHYLNITROSAMINE, 55-18-5, N-METHYL-N-NITROSOUREA, 684-93-5, 1,2-DIMETHYLHYDRAZINE, 306-37-6, 25 PPM IN DRINKING WATER FOR 21 WK BEGINNING 2 WK POST CARCINOGEN TREATMENT (STUDY DURATION: 32 WK), Species: MOUSE, Strain/Sex: B6C3F1/MALE, Target Tissue: Type of Lesion: LUNG: CARCINOMA, Dose [Carcinogen]: 10 MG/KG BW DEN ON DAYS 11 AND 32 OF AGE, 120 PPM MNU IN DRINKING WATER FROM WKS 4 TO 9, 20 MG/KG BW DMH 2/WK FOR 5 WK): 1/16 (6%), 2/16 (13%), -116%, not significant | tumour outcome (control, treated, inhibition, significance) (Carcinogen: DIETHYLNITROSAMINE, 55-18-5, N-METHYL-N-NITROSOUREA, 684-93-5, 1,2-DIMETHYLHYDRAZINE, 306-37-6, Carcinogen: DIETHYLNITROSAMINE, 55-18-5, N-METHYL-N-NITROSOUREA, 684-93-5, 1,2-DIMETHYLHYDRAZINE, 306-37-6, 50 PPM IN DRINKING WATER FOR 21 WK BEGINNING 2 WK POST CARCINOGEN TREATMENT (STUDY DURATION: 32 WK), Species: MOUSE, Strain/Sex: B6C3F1/FEMALE, Target Tissue: Type of Lesion: LUNG: ADENOMA, Dose [Carcinogen]: 10 MG/KG BW DEN ON DAYS 11 AND 32 OF AGE, 120 PPM MNU IN DRINKING WATER FROM WKS 4 TO 9, 20 MG/KG BW DMH 2/WK FOR 5 WK): 6/16 (38%), 8/15 (53%), -39%, not significant | tumour outcome (control, treated, inhibition, significance) (Carcinogen: DIETHYLNITROSAMINE, 55-18-5, N-METHYL-N-NITROSOUREA, 684-93-5, 1,2-DIMETHYLHYDRAZINE, 306-37-6, Carcinogen: DIETHYLNITROSAMINE, 55-18-5, N-METHYL-N-NITROSOUREA, 684-93-5, 1,2-DIMETHYLHYDRAZINE, 306-37-6, 50 PPM IN DRINKING WATER FOR 21 WK BEGINNING 2 WK POST CARCINOGEN TREATMENT (STUDY DURATION: 32 WK), Species: MOUSE, Strain/Sex: B6C3F1/MALE, Target Tissue: Type of Lesion: LUNG: ADENOMA, Dose [Carcinogen]: 10 MG/KG BW DEN ON DAYS 11 AND 32 OF AGE, 120 PPM MNU IN DRINKING WATER FROM WKS 4 TO 9, 20 MG/KG BW DMH 2/WK FOR 5 WK): 11/16 (69%), 3/16 (19%), 72%, p<0.02 | tumour outcome (control, treated, inhibition, significance) (Carcinogen: DIETHYLNITROSAMINE, 55-18-5, N-METHYL-N-NITROSOUREA, 684-93-5, 1,2-DIMETHYLHYDRAZINE, 306-37-6, Carcinogen: DIETHYLNITROSAMINE, 55-18-5, N-METHYL-N-NITROSOUREA, 684-93-5, 1,2-DIMETHYLHYDRAZINE, 306-37-6, 50 PPM IN DRINKING WATER FOR 21 WK BEGINNING 2 WK POST CARCINOGEN TREATMENT (STUDY DURATION: 32 WK), Species: MOUSE, Strain/Sex: B6C3F1/MALE, Target Tissue: Type of Lesion: LUNG: CARCINOMA, Dose [Carcinogen]: 10 MG/KG BW DEN ON DAYS 11 AND 32 OF AGE, 120 PPM MNU IN DRINKING WATER FROM WKS 4 TO 9, 20 MG/KG BW DMH 2/WK FOR 5 WK): 1/16 (6%), 0/16 (0%), 100%, not significant | tumour outcome (control, treated, inhibition, significance) (Carcinogen: N-BUTYL-N-(4-HYDROXYBUTYL)NITROSAMINE, 3817-11-6, 0.0025% IN DRINKING WATER FOR 12 WK BEGINNING POST CARCINOGEN TREATMENT (STUDY DURATION: 20 WK), Species: RAT, Strain/Sex: F344/MALE, Target Tissue: Type of Lesion: URINARY BLADDER: TRANSITIONAL CELL CARCINOMA, Dose [Carcinogen]: 0.05% IN DRINKING WATER FOR 8 WK): 10/12 (83%), 10/12 (83%), 0%, not significant | tumour outcome (control, treated, inhibition, significance) (Carcinogen: N-METHYLNITROSAUREA, 684-93-5, 17 PPM IN TOMATO JUICE AND WATER (1:2) AS DRINKING FLUID FOR DURATION OF STUDY (STUDY DURATION: 35 WK), Species: RAT, Strain/Sex: F344/FEMALE, Target Tissue: Type of Lesion: COLON: TUMOR, Dose [Carcinogen]: 0.4% (0.5 ML) AQUEOUS SOLUTION 3/WK FOR 3 WK): 13/24 (54%), 5/24 (21%), 61%, p<0.02 | tumour outcome (control, treated, inhibition, significance) (Carcinogen: N-METHYLNITROSOUREA, 684-93-5, 3.4 PPM IN TOMATO JUICE AND WATER (1:14) AS DRINKING FLUID FOR DURATION OF STUDY (STUDY DURATION: 35 WK), Species: RAT, Strain/Sex: F344/FEMALE, Target Tissue: Type of Lesion: COLON: TUMOR, Dose [Carcinogen]: 0.8% (0.5 ML) AQUEOUS SOLUTION 3/WK FOR 3 WKS): 21/25 (84%), 18/25 (72%), 14%, not significant | tumour outcome (control, treated, inhibition, significance) (Carcinogen: N-METHYLNITROSOUREA, 684-93-5, 17 PPM IN DRINKING WATER FOR DURATION OF STUDY (STUDY DURATION: 35 WK), Species: RAT, Strain/Sex: F344/FEMALE, Target Tissue: Type of Lesion: COLON: TUMOR, Dose [Carcinogen]: 0.4% (0.5 ML) AQUEOUS SOLUTION 3/WK FOR 3 WK): 13/24 (54%), 8/24 (33%), 39%, not significant | tumour outcome (control, treated, inhibition, significance) (Carcinogen: N-METHYLNITROSOUREA, 684-93-5, 17 PPM IN TOMATO JUICE AND WATER (1:2) AS DRINKING FLUID FOR DURATION OF STUDY (STUDY DURATION: 35 WK), Species: RAT, Strain/Sex: F344/FEMALE, Target Tissue: Type of Lesion: COLON: TUMOR, Dose [Carcinogen]: 0.8% (0.5 ML) AQUEOUS SOLUTION 3/WK FOR 3 WK): 21/25 (84%), 10/25 (40%), 52%, p<0.01
